{"source": "paper PMC11768839", "about": "(Viruses, 2024)", "key": {"influenza PR8": {"tested_on": "influenza PR8", "format": "cell-based, Influenza A virus PR8"}}, "data": [{"compound": "O=[N+]([O-])c1ccc(Nc2ccc(Cl)c(C(F)(F)F)c2)c2nonc12", "note": "[Compound 5342191, N-[4-chloro-3-(trifluoromethyl)phenyl]-7-nitro-2,1,3-benzoxadiazol-4-amine]", "values": [{"measurement": "sensitivity of selected HCoV-229E virus to EC90 dose", "setting": "HCoV-229E", "result": "remained sensitive"}, {"measurement": "sensitivity of selected influenza PR8 virus to EC90 dose", "setting": "influenza PR8", "result": "remained sensitive"}]}]}
